Experimental data as given in article PMC10447463, “Data-mining unveils structure–property–activity correlation of viral infectivity enhancing self-assembling peptides” (Nature Communications, 2023).
Like-named read-outs stand apart in the source and are kept apart here.

What was measured:
[1] = Turbidity, derived count rate of scattered light; format: physicochemical; conditions: for Count Rate / kcps: derived count rate of scattered light at 633 nm, 173°, from zeta-potential measurement, 0.1 mg/mL in 1 mM KCl after 1 d at 1 mg/mL in PBS, turbidity / microscopic aggregation, mean of triplicate; for Zeta Count Rate: peptides with TEM 2cat 0; for Log Count Rate: log of derived count rate
Procedure, shortened: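 One-day room-temperature aggregation at 1 mg/mL in PBS (pH 7.4) preceded measurement; samples then went into 1 mM KCl. Triplicates per sample, two independent experiments averaged.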

[2] = format: physicochemical; conditions: for ThT Cat. / ThT-Fluorescence (categorical): ThT-active if fluorescence at least twice the control
Procedure, shortened: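 Fibrils (1 mg/mL solution) were mixed with 50 µM ThT in PBS for 15 min at RT, and fluorescence was read at λex 440/λem 488 nm against a PBS blank, as a triplicate mean ± SD. Zeta potential came from electrophoretic mobility (Smoluchowski) after 1 d aggregation at 1 mg/mL in PBS pH 7.4, diluted into 1 mM KCl.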

[3] = Log10 of derived count rate of scattered light (turbidity)
[4] = log10 of derived count rate of scattered light (turbidity)
[5] = turbidity, Log10 of derived count rate of scattered light, Figure 3A source data
[6] = ThT fluorescence category, 1 if Rel. ThT >2
[7] = logarithm of count rate in kcps
[8] = turbidity, log10 of derived count rate of scattered light

Row | Substance | Log10 Count Rate [1, 3] | Count Rate / kcps [1] | Log10 Count Rate [1, 4] | Log10 Count Rate [1, 5] | Tht category (> 2 to blank = +) ([2]; Fig S10 panel D) | ThT Cat, ([2]; ThT category, 1 if Rel. ThT >2) | ThT Cat. ([2]; ThT category, 1 if Rel. ThT >2) | ThT Cat. / ThT-Fluorescence (categorical) [2] | ThT Cat. [2, 6] | ThT Cat. ([2]; Fig S10 panel E) | further results
1 | KIKIKIQINMWQ | 3.205 | 1603 kcps | 3.205 | 3.205 | 0 (ThT-inactive (N-Fold <2)) | 0 (ThT-inactive (N-Fold <2)) | 0 (ThT-inactive (N-Fold <2)) | 0 (ThT-inactive (N-Fold <2)) | – | – | –
2 | KIKIKIKIWWWW | 4.094 | 12421 kcps | 4.094 | 4.094 | 1 (ThT. Cat is 1, if Rel. ThT >2) | 1 (ThT. Cat is 1, if Rel. ThT >2) | – | 1 (ThT. Cat is 1, if Rel. ThT >2) | 1 (ThT. Cat is 1, if Rel. ThT >2) | – | Zeta Count Rate [1]: 12421 kcp
3 | CKAKAQANM | 2.317 | 207 kcps | – | 2.317 | 0 (ThT-inactive (N-Fold <2)) | 0 (ThT-inactive (N-Fold <2)) | 0 (ThT-inactive (N-Fold <2)) | 0 (ThT-inactive (N-Fold <2)) | – | 0 (ThT-inactive (N-Fold <2)) | Log10 Count Rate [1, 7]: 2.3; Log10 Count Rate [1, 8]: 2.317; Tht category (> 2 to blank = +) ([2]; FigS12 panel A): 0 (ThT-inactive (N-Fold <2)); ThT Cat, ([2]; FigS12 panel B): 0 (ThT-inactive (N-Fold <2)); Rel. ThT ([2]; n-fold ThT fluorescence vs control (PBS, 10% DMSO), 4 µL 1 mg/mL fibrils + 20 µL 50 µM ThT, 15 min RT, ex 440 / em 488 nm, triplicate): 1.2
4 | CQFQFQF | 3.899 | 7929 kcps | 3.899 | 3.899 | 1 (ThT. Cat is 1, if Rel. ThT >2) | 1 (ThT. Cat is 1, if Rel. ThT >2) | – | 1 (ThT. Cat is 1, if Rel. ThT >2) | 1 (ThT. Cat is 1, if Rel. ThT >2) | – | Log10 Count Rate [1, 7]: 3.899
5 | RGDKIKIQIC | 3.876 | 7509 kcps | 3.876 | 3.876 | 1 (ThT. Cat is 1, if Rel. ThT >2) | 1 (ThT. Cat is 1, if Rel. ThT >2) | – | 1 (ThT. Cat is 1, if Rel. ThT >2) | 1 (ThT. Cat is 1, if Rel. ThT >2) | 1 (ThT. Cat is 1, if Rel. ThT >2) | –
6 | RGDKIKIQINMWQ | 3.1914 | 1554 kcps | 3.1914 | 3.1914 | 0 (ThT-inactive (N-Fold <2)) | 0 (ThT-inactive (N-Fold <2)) | – | 0 (ThT-inactive (N-Fold <2)) | 0 (ThT-inactive (N-Fold <2)) | 0 (ThT-inactive (N-Fold <2)) | –
7 | HHHHKIKIKIKIYYYY | 4.107 | 12793 kcps | 4.107 | 4.107 | 1 (ThT. Cat is 1, if Rel. ThT >2) | 1 (ThT. Cat is 1, if Rel. ThT >2) | – | 1 (ThT. Cat is 1, if Rel. ThT >2) | 1 (ThT. Cat is 1, if Rel. ThT >2) | – | Log10 Count Rate [1, 7]: 4.107; Zeta Count Rate [1]: 12793 kcp
8 | CKFKFQFW | 4.466 | 29211 kcps | 4.466 | 4.466 | 0 (ThT-inactive (N-Fold <2)) | 0 (ThT-inactive (N-Fold <2)) | 0 (ThT-inactive (N-Fold <2)) | 0 (ThT-inactive (N-Fold <2)) | – | 0 (ThT-inactive (N-Fold <2)) | Log10 Count Rate [1, 7]: 4.466
9 | HHHHKIKIQINMYYYY | 3.753 | 5659 kcps | 3.753 | 3.753 | 1 (ThT. Cat is 1, if Rel. ThT >2) | 1 (ThT. Cat is 1, if Rel. ThT >2) | – | 1 (ThT. Cat is 1, if Rel. ThT >2) | 1 (ThT. Cat is 1, if Rel. ThT >2) | 1 (ThT. Cat is 1, if Rel. ThT >2) | Log10 Count Rate [1, 7]: 3.753
10 | KFKFQFW | 2.086 | 122 kcps | 2.086 | 2.086 | 1 (ThT. Cat is 1, if Rel. ThT >2) | 1 (ThT. Cat is 1, if Rel. ThT >2) | 1 (ThT. Cat is 1, if Rel. ThT >2) | 1 (ThT. Cat is 1, if Rel. ThT >2) | – | – | –
11 | HHHHKIKIKIKIWWWW [TM4] | – | – | – | – | – | – | – | – | – | – | Log Count Rate ([1]; Fig S8 panels A, C, asymmetric log errors): 4.376; Log Count Rate ([1]; Fig S8 panels B, D): 4.376; Count Rate ([1]; Fig S8 panels B, D, turbidity, derived count rate of scattered light): 23756.7; Zeta Count Rate Category ([1]; category 1 / 0, no key given): 1; Zeta Count Rate / kcps ([1]; derived count rate of scattered light): 23756.66667 kcps; Tht rel to blank (42.1851851851852) ([2]; ThT fluorescence relative to blank, blank = 42.1851851851852): 4.025; Tht category (> 1.5 to blank = +) ([2]; category 1/0): 1 (ThT. Cat is 1, if Rel. ThT >2)
12 | KIKIQINMWWWQ | 3.8806 | 7596 kcps | 3.8806 | 3.8806 | 0 (ThT-inactive (N-Fold <2)) | 0 (ThT-inactive (N-Fold <2)) | 0 (ThT-inactive (N-Fold <2)) | 0 (ThT-inactive (N-Fold <2)) | – | – | Zeta Count Rate [1]: 7596 kcp
13 | KAKAKAQA | 1.886 | 77 kcps | 1.886 | 1.886 | 0 (ThT-inactive (N-Fold <2)) | 0 (ThT-inactive (N-Fold <2)) | – | 0 (ThT-inactive (N-Fold <2)) | 0 (ThT-inactive (N-Fold <2)) | – | Tht category (> 2 to blank = +) ([2]; FigS12 panel A): 0 (ThT-inactive (N-Fold <2)); ThT Cat, ([2]; FigS12 panel B): 0 (ThT-inactive (N-Fold <2))
14 | RGDKIKIQINM | 1.7574 | 57 kcps | 1.7574 | 1.7574 | 1 (ThT. Cat is 1, if Rel. ThT >2) | 1 (ThT. Cat is 1, if Rel. ThT >2) | – | 1 (ThT. Cat is 1, if Rel. ThT >2) | 1 (ThT. Cat is 1, if Rel. ThT >2) | 1 (ThT. Cat is 1, if Rel. ThT >2) | –
15 | CKFKQFFNMWQ | 3.914 | 8210 kcps | – | 3.914 | 1 (ThT. Cat is 1, if Rel. ThT >2) | 1 (ThT. Cat is 1, if Rel. ThT >2) | 1 (ThT. Cat is 1, if Rel. ThT >2) | 1 (ThT. Cat is 1, if Rel. ThT >2) | – | 1 (ThT. Cat is 1, if Rel. ThT >2) | Log10 Count Rate [1, 8]: 3.914
16 | ILKNLSRSRKIKIQIC | 3.379 | 2392 kcps | 3.379 | 3.379 | 1 (ThT. Cat is 1, if Rel. ThT >2) | 1 (ThT. Cat is 1, if Rel. ThT >2) | – | 1 (ThT. Cat is 1, if Rel. ThT >2) | 1 (ThT. Cat is 1, if Rel. ThT >2) | – | –
17 | CKIKQIIRGD | 3.544 | 3495 kcps | 3.544 | 3.544 | – | 0 (ThT-inactive (N-Fold <2)) | – | 0 (ThT-inactive (N-Fold <2)) | 0 (ThT-inactive (N-Fold <2)) | – | ThT Cat, ([2]; FigS12 panel B): 0 (ThT-inactive (N-Fold <2))
18 | KFKFEFEF | 3.34 | 2186 kcps | 3.34 | 3.34 | 1 (ThT. Cat is 1, if Rel. ThT >2) | 1 (ThT. Cat is 1, if Rel. ThT >2) | – | 1 (ThT. Cat is 1, if Rel. ThT >2) | 1 (ThT. Cat is 1, if Rel. ThT >2) | – | Tht category (> 2 to blank = +) ([2]; FigS12 panel A): 1 (ThT. Cat is 1, if Rel. ThT >2); ThT Cat, ([2]; FigS12 panel B): 1 (ThT. Cat is 1, if Rel. ThT >2)
19 | KFKFQFFF | 3.483 | 3039 kcps | 3.483 | 3.483 | 1 (ThT. Cat is 1, if Rel. ThT >2) | 1 (ThT. Cat is 1, if Rel. ThT >2) | – | 1 (ThT. Cat is 1, if Rel. ThT >2) | 1 (ThT. Cat is 1, if Rel. ThT >2) | 1 (ThT. Cat is 1, if Rel. ThT >2) | –
20 | KVKVQVV | 1.443 | 28 kcps | 1.443 | 1.443 | 0 (ThT-inactive (N-Fold <2)) | 0 (ThT-inactive (N-Fold <2)) | – | 0 (ThT-inactive (N-Fold <2)) | 0 (ThT-inactive (N-Fold <2)) | – | Tht category (> 2 to blank = +) ([2]; FigS12 panel A): 0 (ThT-inactive (N-Fold <2)); ThT Cat, ([2]; FigS12 panel B): 0 (ThT-inactive (N-Fold <2))
